Assay results as given in patent US9303042B2, “Triazolothienopyrimidine compound inhibitors of urea transporters and methods of using inhibitors” (The Regents of the University of California, priority 2012, dated 2016).
Like-named read-outs stand apart in the source and are kept apart here.

Columns and labels:
TMEM16A = molecular target: T1, TMEM16A (Homo sapiens, UniProt Q5XXA6); experiment: TMEM16A calcium-activated chloride conductance by short-circuit current; type: cell-based; settings: 10 μM, ATP-activated
T1 construct: expressed in transfected cells
T1 sequence (Q5XXA6 1-986): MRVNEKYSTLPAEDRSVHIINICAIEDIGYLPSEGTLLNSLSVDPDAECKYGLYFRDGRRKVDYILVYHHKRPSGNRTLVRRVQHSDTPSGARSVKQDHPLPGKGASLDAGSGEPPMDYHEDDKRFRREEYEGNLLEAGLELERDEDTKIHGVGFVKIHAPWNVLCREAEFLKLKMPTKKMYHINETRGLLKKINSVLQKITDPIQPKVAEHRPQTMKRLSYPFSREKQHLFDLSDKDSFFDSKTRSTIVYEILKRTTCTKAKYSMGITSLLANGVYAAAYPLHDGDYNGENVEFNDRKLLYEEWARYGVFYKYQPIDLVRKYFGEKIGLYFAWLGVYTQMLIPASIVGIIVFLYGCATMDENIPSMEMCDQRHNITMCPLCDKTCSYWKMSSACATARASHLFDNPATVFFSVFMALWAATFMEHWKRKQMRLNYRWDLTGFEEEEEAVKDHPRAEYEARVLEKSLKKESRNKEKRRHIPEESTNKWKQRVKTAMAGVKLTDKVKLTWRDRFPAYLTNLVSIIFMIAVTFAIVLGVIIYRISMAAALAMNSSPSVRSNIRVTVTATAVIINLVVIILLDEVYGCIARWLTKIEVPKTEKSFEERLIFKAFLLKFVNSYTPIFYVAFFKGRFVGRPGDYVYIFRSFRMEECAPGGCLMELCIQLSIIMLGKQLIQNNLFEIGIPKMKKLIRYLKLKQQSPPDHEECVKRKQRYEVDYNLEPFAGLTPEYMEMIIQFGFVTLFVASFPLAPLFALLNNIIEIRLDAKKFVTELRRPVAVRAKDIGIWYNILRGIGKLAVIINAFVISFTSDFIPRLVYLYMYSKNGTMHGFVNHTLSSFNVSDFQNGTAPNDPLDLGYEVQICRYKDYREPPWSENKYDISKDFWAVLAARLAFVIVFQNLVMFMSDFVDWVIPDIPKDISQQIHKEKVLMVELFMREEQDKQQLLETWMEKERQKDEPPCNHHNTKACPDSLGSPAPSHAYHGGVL
Description: CFTR chloride conductance was measured by short-circuit current analysis in Fisher rat thyroid (FRT) cells stably expressing CFTR, as described (see, e.g., Ma et al., J. Biol. Chem. (2002), supra). CFTR chloride conductance was stimulated by forskolin and inhibited by a thiazolidinone compound that inhibits CFTR (CFTRinh-172). TMEM16A calcium-activated chloride conductance was measured by short-circuit current analysis in FRT cells stably expressing TMEM16A, as described (see, e.g., Namkung et al., J. Biol. Chem. 286:2365-2374, 2011. TMEM16A was stimulated by ATP and inhibited by tannic acid (100 μM). Cytotoxicity was measured in MDCK using the MTT assay [3(4,5-dimethyl-thiazol-2-yl)-2,5-diphenyl tetrazolium bromide] by standard procedures.

mice [1] = experiment: Urinary concentration in mice; type: in vivo, mouse
Description: In some studies, mice were placed on low, normal or […] diets (4%, 20% or 40% casein, Harlan Labs.) for 1 week prior study of dDAVP effects. […] Urea concentration was determined by a colorimetric enzymatic assay as described above. Measurements were also done in the absence of dDAVP in which urine was collected during free access to food and water. […]

mice [2] = experiment: Urinary concentration in mice; type: in vivo, mouse; settings: 1 week high-protein diet, 300 μg
UT-B = molecular target: T2, UT-B (Mus musculus, UniProt Q8VHL0); experiment: Erythrocyte lysis assay of UT-B inhibition; type: cell-based; design: Screening was performed using mouse erythrocytes, which strongly express UT-B; endogenous in cells; host or cells: erythrocytes in whole blood of wild-type CD1 mice; settings: read-out: IC50
T2 sequence (Q8VHL0 1-384): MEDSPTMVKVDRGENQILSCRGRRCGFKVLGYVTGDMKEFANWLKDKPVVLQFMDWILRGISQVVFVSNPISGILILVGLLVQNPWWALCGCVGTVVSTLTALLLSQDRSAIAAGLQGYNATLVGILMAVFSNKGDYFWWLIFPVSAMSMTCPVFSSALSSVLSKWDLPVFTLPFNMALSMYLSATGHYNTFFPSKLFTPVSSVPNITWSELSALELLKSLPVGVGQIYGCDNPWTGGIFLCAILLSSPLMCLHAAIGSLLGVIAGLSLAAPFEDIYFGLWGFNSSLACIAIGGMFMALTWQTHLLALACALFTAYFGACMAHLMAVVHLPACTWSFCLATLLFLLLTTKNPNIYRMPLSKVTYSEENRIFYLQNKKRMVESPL
Outline: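 Mouse erythrocytes (expressing UT-B and AQP1) subjected to an outward acetamide gradient; UT-B inhibition blocks acetamide efflux, causing swelling and lysis. Lysis quantified by absorbance at 710 nm within 5 min of hypo-osmolar shock.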

[3] = free access to food and water, no dDAVP, 300 μg

Which “inhibition of TMEM16A chloride conductance” value (TMEM16A) does the source give for `CCc1ccc(S(=O)(=O)c2nnn3c2nc(NCc2cccs2)c2sccc23)cc1` [UTBinh-14, [3-(4-Ethyl-benzenesulfonyl)-thieno[2,3-e][1,2,3]triazolo[1,5-a]pyrimidin-5-yl]-thiophen-2-ylmethylamine] here?
The value was “no significant inhibition”.

And the “urine osmolality, UT-B knockout mice” value (mice [1]; 300 μg intraperitoneal, dDAVP)?
The value was “did not significantly reduce”.

And the “urine urea concentration, UT-B knockout mice” value (mice [1]; 300 μg intraperitoneal, dDAVP)?
The value was “did not significantly reduce”.

What about the “urine osmolality, wild type mice” value (mice [1]; 300 μg intraperitoneal, dDAVP 1 h later) of the same molecule?
The value was “significantly reduced”.

What about the “effect on dDAVP-stimulated urinary concentration, low-protein diet” value (mice [1]; 1 week low-protein diet, 300 μg) of the same molecule?
Its value is “little effect”.

And the urine osmolality (mice [1]; [3])?
Its urine osmolality is “reduced”.

And the urine urea concentration (mice [1]; [3])?
Its urine urea concentration is “reduced”.

And the urine volume (mice [1]; [3])?
The urine volume was “significantly increased”.

And the “effect on dDAVP-stimulated urinary concentration, high-protein diet” value (mice [2])?
The value was “robust effect”.

What about the IC50 (UT-B; Table 2, synthesized inhibitors, red blood cell lysis assay (n = 3), single-site saturation model) of the same molecule?
Its IC50 is 11 nM.

What about the IC50 (UT-B; erythrocyte lysis assay) of the same molecule?
Its IC50 is 22 nM.
